Test results taken from US20240199624A1, “COMPOUNDS, COMPOSITIONS, AND METHODS” (CHDI Foundation, Inc., priority 2022, published 2024).

What was measured:
human MutSbeta = target: T1, human MutSbeta (Homo sapiens, UniProt P20585+P43246); assay: P33 SPA 1.1; assay type: biochemical; conditions: Table 5A; enzyme first added to compounds, then ATP
T1 construct: Msh2(1-934), Gene ID NP_000242.1; Msh3(1-1137), Gene ID J04810.1
Protocol: P33 SPA: Enzyme human MutSbeta (Msh2(1-934), Gene ID NP_000242.1, Msh3(1-1137), Gene ID J04810.1) and 22 bp biotin-labeled DNA containing a GT-mismatch (purchased from Curia Global, TOP 5′-[…]-3′; BOT 3′-AGTAGCTAGGC - - - CGAAGTCTACC-5′-Biotin) were pre-incubated at equimolar concentration for 15 min at room temperature (“RT”) in assay buffer (25 mM HEPES pH=7.5, 150 mM KCl, 2 mM MgCl2, 2 mM GSH, 0.01% Tween-20). ATP (10 μL, 2× final concentration of γ-[^33P]-ATP (final 0.1 nM; Hartmann Analytic, FF-301) and cold ATP (final 2 μM)) was added to compounds (400 nL spotted as concentration response in 100% DMSO into wells of an OptiPlate) and pre-incubated for 30 min at RT. Then, enzyme with DNA was added (10 μL, 2× final concentration of 7 nM) and incubated for 60 min at 37° C. in a total volume of 20 μL per well. Decay of [^33P] with a half-life of 25.4 days was corrected by increasing the concentration of the labelled nucleotide with the appropriate factor; all steps with radioactive ATP were conducted behind appropriate shielding. Then, 20 μL of a 1:2 mix of ammonium molybdate (20 mg/mL Ammonium molybdate in 2.4 M HCl) and SPA beads (ProteinA SPA beads from Perkin Elmer Cat #RPNQ0019 at 7.5 mg/mL+1% azide) was added per well and incubated at RT for 2 min. Then, 40 μL of 7 M CsCl and 0.1 M citrate was added per well and incubated for 20 h at RT before measuring on the MicroBeta (top read mode, 1 min per well). For full plate processing, all reagents were transferred with a pipettor (Selma, CyBio) apart from the final reagent (CsCl+citrate) which was added with a dispenser (MultiFlo, BioTek). Data analysis during assay development was done with Prism GraphPad.
P33 SPA 11: For the SPA 1.1 assay, the addition of reagents was reversed, i.e. enzyme was first added to the compounds and pre-incubated followed by ATP addition; thus, the assay was aligned with ADP Glo 1.1 reagent addition order. The assay was repeated under similar conditions, and the results are shown below in Table 5B. It is contemplated the solubility of the compounds and/or varying test occasions may account for variability of assay results.

human MutSα = target: T2, human MutSα (Homo sapiens, UniProt P43246+P52701); assay: ADP Glo assay with MutSα (2.1); assay type: biochemical; conditions: 15 nM MutSα/DNA, 30 μM ATP
T2 construct: Msh2(1-934), Gene ID NP_000242.1; Msh6(1-1360), Gene ID NP_001393725.1
T2 sequence (P43246 whole entry): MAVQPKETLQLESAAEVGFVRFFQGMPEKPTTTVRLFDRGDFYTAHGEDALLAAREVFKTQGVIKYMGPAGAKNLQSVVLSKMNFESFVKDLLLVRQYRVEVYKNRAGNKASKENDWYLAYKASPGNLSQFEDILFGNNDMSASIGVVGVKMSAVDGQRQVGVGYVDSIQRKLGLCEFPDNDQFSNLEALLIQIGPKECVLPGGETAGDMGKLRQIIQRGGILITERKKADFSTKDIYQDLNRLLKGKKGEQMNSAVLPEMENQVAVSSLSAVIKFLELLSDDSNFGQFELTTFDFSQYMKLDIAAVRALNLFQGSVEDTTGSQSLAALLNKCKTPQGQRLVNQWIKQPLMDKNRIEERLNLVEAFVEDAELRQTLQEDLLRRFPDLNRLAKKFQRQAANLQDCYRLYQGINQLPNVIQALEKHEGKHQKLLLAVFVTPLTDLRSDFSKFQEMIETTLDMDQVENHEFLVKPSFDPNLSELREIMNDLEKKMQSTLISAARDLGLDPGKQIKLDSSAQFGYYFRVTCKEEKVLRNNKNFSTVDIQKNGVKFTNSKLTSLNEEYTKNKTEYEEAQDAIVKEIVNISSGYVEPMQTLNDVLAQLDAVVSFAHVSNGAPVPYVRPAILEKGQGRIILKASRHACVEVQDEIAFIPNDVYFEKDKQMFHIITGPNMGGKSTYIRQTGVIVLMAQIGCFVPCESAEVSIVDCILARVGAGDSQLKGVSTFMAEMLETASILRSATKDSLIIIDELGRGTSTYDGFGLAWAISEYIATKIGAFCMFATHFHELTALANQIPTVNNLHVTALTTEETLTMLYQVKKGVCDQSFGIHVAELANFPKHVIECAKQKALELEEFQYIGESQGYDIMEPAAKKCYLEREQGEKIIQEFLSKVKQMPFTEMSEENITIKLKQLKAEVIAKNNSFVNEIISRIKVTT
T2 sequence (P52701 whole entry): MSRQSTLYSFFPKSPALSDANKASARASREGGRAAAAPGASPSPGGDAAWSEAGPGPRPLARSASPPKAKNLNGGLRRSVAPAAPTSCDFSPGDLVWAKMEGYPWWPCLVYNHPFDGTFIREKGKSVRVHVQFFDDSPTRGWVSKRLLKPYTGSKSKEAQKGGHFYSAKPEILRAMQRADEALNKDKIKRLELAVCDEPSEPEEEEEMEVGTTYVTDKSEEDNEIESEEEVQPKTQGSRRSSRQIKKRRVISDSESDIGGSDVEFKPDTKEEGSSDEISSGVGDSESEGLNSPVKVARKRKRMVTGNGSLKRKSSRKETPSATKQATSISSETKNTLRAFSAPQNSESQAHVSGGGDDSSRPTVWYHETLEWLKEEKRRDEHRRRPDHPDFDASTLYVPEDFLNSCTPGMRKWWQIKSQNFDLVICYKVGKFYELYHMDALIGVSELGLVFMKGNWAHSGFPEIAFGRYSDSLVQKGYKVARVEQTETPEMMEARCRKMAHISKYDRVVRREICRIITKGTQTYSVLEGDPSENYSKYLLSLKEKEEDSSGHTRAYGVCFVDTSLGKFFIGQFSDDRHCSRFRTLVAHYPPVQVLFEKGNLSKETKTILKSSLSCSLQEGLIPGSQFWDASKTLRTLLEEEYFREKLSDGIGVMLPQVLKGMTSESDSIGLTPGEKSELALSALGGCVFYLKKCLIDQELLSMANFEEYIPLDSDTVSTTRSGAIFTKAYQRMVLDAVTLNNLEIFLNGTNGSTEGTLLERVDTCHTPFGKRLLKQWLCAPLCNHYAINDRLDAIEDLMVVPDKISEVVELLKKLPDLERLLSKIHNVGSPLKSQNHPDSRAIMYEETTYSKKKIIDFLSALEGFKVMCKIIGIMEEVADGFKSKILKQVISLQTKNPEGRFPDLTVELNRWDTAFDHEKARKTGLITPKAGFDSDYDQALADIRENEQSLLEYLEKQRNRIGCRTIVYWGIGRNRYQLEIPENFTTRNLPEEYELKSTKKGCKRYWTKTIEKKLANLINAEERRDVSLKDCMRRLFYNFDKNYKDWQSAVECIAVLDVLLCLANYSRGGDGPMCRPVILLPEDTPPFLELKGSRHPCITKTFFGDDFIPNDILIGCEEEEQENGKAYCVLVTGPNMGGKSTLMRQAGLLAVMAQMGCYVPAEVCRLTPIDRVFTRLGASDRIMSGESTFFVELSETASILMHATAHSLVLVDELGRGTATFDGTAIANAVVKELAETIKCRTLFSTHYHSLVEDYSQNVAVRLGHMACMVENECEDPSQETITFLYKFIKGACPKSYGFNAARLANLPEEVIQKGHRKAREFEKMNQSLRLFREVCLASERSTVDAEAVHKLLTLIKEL
Protocol: ADP Glo assay 2.1: Enzyme human MutSbeta (Msh2(1-934), Gene ID NP_000242.1, Msh3(1-1137), Gene ID J04810.1) with 22 bp biotin-labeled DNA containing a GT-mismatch (purchased from Curia Global, TOP 5′-[…]-3′; BOT 3′-AGTAGCTAGGC - - - CGAAGTCTACC-5′-Biotin) was pre-incubated in assay buffer (25 mM HEPES pH=7.5, 150 mM KCl, 5 mM MgCl2, 5 mM GSH, 0.1% Pluronic F-127, 0.2% Ovalbumin) to allow formation of the enzyme-DNA complex. Plates with spotted compounds in serial dilutions in DMSO (80 nL) were filled with ATP (2 μL, 10 μM final concentration) followed by an incubation of 30 min at RT. Then, enzyme was added (2 μL, 7 nM final concentration) and the reaction was allowed to proceed for 60 min at 37° C. After the ATPase reaction, the commercially available “ADP-Glo Reagent” was added (incubate 40 min at RT) to deplete remaining ATP via the activity of […]. Subsequently, the commercially available “Kinase Detection Reagent” converted ADP to ATP via the activity of PEP and Pyruvate kinase. The ATP was then converted into light by Ultra-Glo Luciferase. The obtained luminescence was proportional to the ADP concentration generated during the initial ATPase reaction. The luminescence signal was measured with an Envision reader, raw data were analyzed towards controls (full reaction=0% inhibition; no reaction in absence of enzyme=100% inhibition) and IC50 curves were analyzed with the inhouse software Aplus.
ADP Glo assay with MutSα (2.1): The ADP Glo assay version 2.1 with the enzyme human MutSα (Msh2(1-934), Gene ID NP_000242.1, Msh6(1-1360), Gene ID NP_001393725.1) was based on the same principle and protocol steps as the MutSβ assay. A 22 bp biotin-labeled DNA containing a GT-mismatch (purchased from Curia Global, TOP 5′-[…]-3′; BOT 3′-AGTAGCTAGGC - - - CGAAGTCTACC-5′-Biotin) was used for binding to MutSα. For this assay, concentrations of enzyme and ATP were optimized to 15 nM MutSα/DNA and 30 μM ATP.

T1 sequence (P43246 whole entry): as the sequence (P43246 whole entry) above
T1 sequence (P20585 whole entry): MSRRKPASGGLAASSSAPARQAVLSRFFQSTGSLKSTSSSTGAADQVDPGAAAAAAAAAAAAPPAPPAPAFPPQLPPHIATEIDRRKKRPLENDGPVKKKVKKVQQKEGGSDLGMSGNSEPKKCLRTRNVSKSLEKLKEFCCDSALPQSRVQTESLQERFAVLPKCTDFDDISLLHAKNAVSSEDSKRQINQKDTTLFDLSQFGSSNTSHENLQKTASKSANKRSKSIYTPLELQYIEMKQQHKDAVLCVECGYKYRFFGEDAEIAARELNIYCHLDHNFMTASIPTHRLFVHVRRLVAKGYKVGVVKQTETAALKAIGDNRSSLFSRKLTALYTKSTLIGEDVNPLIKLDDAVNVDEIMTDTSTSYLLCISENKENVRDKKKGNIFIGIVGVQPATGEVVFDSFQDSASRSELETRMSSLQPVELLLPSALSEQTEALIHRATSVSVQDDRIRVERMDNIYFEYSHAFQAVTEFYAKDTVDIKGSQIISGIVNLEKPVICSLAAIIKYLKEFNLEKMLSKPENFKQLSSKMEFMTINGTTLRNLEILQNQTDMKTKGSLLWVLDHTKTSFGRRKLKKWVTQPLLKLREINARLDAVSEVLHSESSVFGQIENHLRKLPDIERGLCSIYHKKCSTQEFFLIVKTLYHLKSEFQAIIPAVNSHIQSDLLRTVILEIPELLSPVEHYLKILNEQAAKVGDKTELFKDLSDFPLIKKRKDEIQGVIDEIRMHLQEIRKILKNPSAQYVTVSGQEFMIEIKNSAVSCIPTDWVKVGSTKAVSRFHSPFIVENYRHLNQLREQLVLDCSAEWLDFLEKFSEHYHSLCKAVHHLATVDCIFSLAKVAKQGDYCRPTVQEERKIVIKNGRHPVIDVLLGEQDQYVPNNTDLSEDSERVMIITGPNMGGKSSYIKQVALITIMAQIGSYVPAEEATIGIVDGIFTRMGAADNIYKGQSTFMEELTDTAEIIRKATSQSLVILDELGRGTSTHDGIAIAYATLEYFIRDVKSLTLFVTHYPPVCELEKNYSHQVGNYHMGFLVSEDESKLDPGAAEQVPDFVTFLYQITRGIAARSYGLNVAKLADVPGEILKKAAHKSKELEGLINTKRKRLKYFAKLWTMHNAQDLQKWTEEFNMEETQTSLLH

IC50 (human MutSbeta) | IC50 (human MutSα) | SMILES
55.9 µM | 135 µM | Cc1ccc(Nc2nc(N3CCN(C)CC3)nc3nccnc23)cc1C [Compound 2, N-(3,4-dimethylphenyl)-2-(4-methylpiperazin-1-yl)pteridin-4-amine]
40.5 µM | 121 µM | CCN1CCN(c2nc(Nc3ccc(Cl)cc3)c3nccnc3n2)CC1 [Compound 4, N-(4-Chlorophenyl)-2-(4-ethylpiperazin-1-yl)pteridin-4-amine]
